Where only a bound is given, the exact number is not on record here.

The target of one data set is T1, Brd4 bromodomain 1 (Homo sapiens, UniProt O60885).
T1 construct: made in house; host or cells: E. coli BL21(DE3)
The experiment in a line: Inhibition of tetra-acetylated histone H4 binding to BET bromodomains (TR-FRET). To be noted: first bromodomain of Brd4, tetra-acetylated histone H4 peptide. Further details: key: Active: Compounds with an IC50 value less than 30 μM were deemed to be active.; Not Active: Compounds with an IC50 value less than 30 μM were deemed to be active. Put shortly:
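TR-FRET with N-terminally His-tagged bromodomains (200 nM, E. coli-expressed, Ni affinity and SEC-purified) and biotinylated tetra-acetylated histone H4 peptide (25–50 nM), detected with Eu-cryptate streptavidin and XL665 anti-His antibody. Buffer 30 mM HEPES pH 7.4, 320 mM KF, 0.08% BSA, 0.2% DMSO; 2 h RT. IC50 from decrease in 665/620 nm ratio.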
Background: TR-FRET usually uses a lanthanide donor and a delayed reading to cut background.

A further data set relates to c-myc. The experiment in a line: Inhibition of c-myc expression in cancer cell lines (mRNA, real-time PCR). The format is cell-based. Details: key: Active: Compounds with an IC50 value less than 30 μM were deemed to be active. To be noted: Human AML MV4-11 cells, 3 hours. Put shortly: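 MV4-11 cells (2.5×10^4) exposed to compound or 0.1% DMSO for 3 h at 37° C, then lysed for mRNA isolation. c-myc and cyclophilin cDNAs co-amplified by duplex RT real-time PCR. IC50 from dose-response curve.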
(In general: Real-time PCR tracks product formation cycle by cycle.)

The next data set relates to Human AML MV-4-11 cells. Put plainly: Inhibition of cell proliferation in cancer cell lines (CellTiter Aqueous One). It is filed as cell-based. Details: key: Active: Compounds with an IC50 value less than 30 μM were deemed to be active.; Not Active: Compounds with an IC50 value less than 30 μM were deemed to be active. To be noted: 72 hours. An outline of the steps:
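Exponentially growing MV-4-11 cells were treated immediately with two-fold compound dilutions from 30 µM to 0.2 µM in triplicate for 72 h at 37 °C. Viability was read by MTS (CellTiter Aqueous One) absorbance at 490 nm after 3-4 h; % proliferation vs DMSO gave IC50.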

Another data set concerns hIL-6 mRNA. Put plainly: Inhibition of hIL-6 mRNA transcription in LPS-stimulated U937 macrophages. The format is cell-based, human. Further details: key: Active: Compounds with an IC50 value less than 30 μM are deemed to be active. To be noted: U937 differentiated into macrophages, 1 h pretreatment, lipopolysaccharide 3 h. Put shortly:
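U937 cells differentiated 3 days with 60 ng/mL PMA, pretreated 1 h with compound, then stimulated with […] E. coli LPS for 3 h at 37° C. hIL-6 mRNA quantified by one-step real-time RT-PCR, Ct normalised to internal control and expressed as fold induction relative to control.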

The next data set concerns hApoA-1 mRNA. The experiment in a line: Up-regulation of hApoA-1 mRNA transcription in Huh7 cells. It is filed as cell-based, human. Details: key: Active: Compounds with an EC170 value less than 30 μM are deemed to be active.; Not Active: Compounds with an EC170 value less than 30 μM are deemed to be active. To be noted: 48 hrs treatment, ApoA-I mRNA. How it is done:
In this example, ApoA-I mRNA in tissue culture cells was quantitated to measure the transcriptional up-regulation of ApoA-I when treated with a compound of the present disclosure.
Huh7 cells ([…] per well) were plated in a 96-well plate using 100 μL DMEM per well, (Gibco DMEM supplemented with penicillin/streptomycin and 10% FBS), 24 h before the addition of the compound of interest. After 48 hrs treatment, the spent media was removed from the Huh-7 cells and placed on ice (for immediate use) or at −80° C. (for future use) with the “LDH cytotoxicity assay Kit II” from Abcam. The cells remaining in the plate were rinsed with 100 μL PBS.
Then 85 μL of cell lysis solution was added to each well and incubated for 5-10 minutes at room temperature, to allow for complete cell lysis and detachment. mRNA was then prepared using the “mRNA Catcher PLUS plate” from Life Technologies, according to the protocol supplied. After the last wash, as much wash buffer as possible was aspirated without allowing the wells to dry. Elution Buffer (E3, 80 μL) was then added to each well. mRNA was then eluted by incubating the mRNA Catcher PLUS plate with Elution Buffer for 5 minutes at 68° C., and then 1 minute at 4° C. Catcher plates with mRNA eluted were kept on ice for use or stored at −80° C.
The eluted mRNA isolated was then used in a one-step real-time PCR reaction, using components of the Ultra Sense Kit together with Life Technologies primer-probe mixes. Real-time PCR data was analyzed, using the Ct values, to determine the fold induction of each unknown sample, relative to the control (that is, relative to the control for each independent DMSO concentration).
Compounds with an EC170 value less than 30 μM are deemed to be active.

Another data set relates to IL-6. The experiment in a line: In vivo efficacy in mouse endotoxemia model (IL-6). To be noted: C57/B16 mice; orally at 75 mg/kg; 4 hour challenge with LPS 0.5 mg/kg intraperitoneally. How it is done:
Sub lethal doses of Endotoxin (E. coli bacterial lipopolysaccharide) were administered to animals to produce a generalized inflammatory response which was monitored by increases in secreted cytokines. Compounds were administered to C57/B16 mice orally at 75 mg/kg dose to evaluate inhibition in IL-6 and IL-17 cytokines post 4 hour challenge with Lipopolysaccharide (LPS) at 0.5 mg/kg dose intraperitoneally.

The subject of another data set is arthritic rats. The experiment in a line: In vivo efficacy in rat collagen induced arthritis. To be noted: collagen Day 1 and 7, dosed Day 11 to Day 17. Details: species or system female Lewis strain of rats. How it is done: Rat collagen-induced arthritis is an experimental model of polyarthritis that has been widely used for preclinical testing of numerous anti-arthritic agents. Following administration of collagen, this model establishes a measurable polyarticular inflammation, marked cartilage destruction in association with pannus formation and mild to moderate bone resorption and periosteal bone proliferation. In this model, collagen was administered to female Lewis strain of rats on Day 1 and 7 of study and dosed with compounds from Day 11 to Day 17. Compounds were evaluated to assess the potential to inhibit the inflammation (including paw swelling), cartilage destruction and bone resorption in arthritic rats, using a model in which the treatment is administered after the disease has been established.

As for `COc1cc(OC)c2c(=O)[nH]c(-c3ccc(OCCNC(C)C)c(-c4ccc(S(C)(=O)=O)cc4)n3)nc2c1` [Example 27, 2-(5-(2-(Isopropylamino)ethoxy)-6-(4-(methylsulfonyl)phenyl)pyridin-2-yl)-5,7-dimethoxyquinazolin-4(3H)-one], the “FRET activity (IC50 < 30 μM)” value at Brd4 bromodomain 1 was “Active”. Moreover, in the data set with c-myc, the “c-myc activity (IC50 < 30 μM)” value is listed as “Active”. Also, the “cell proliferation activity (IC50 < 30 μM)” value (“cell proliferation activity” for short) in the data set on Human AML MV-4-11 cells is reported as “Active”. The “IL-6 activity (IC50 < 30 μM)” value with hIL-6 mRNA is reported as “Active”. Also, the “ApoA-1 Activity (EC170 < 30 μM)” value with hApoA-1 mRNA was “Active”. Besides, the “In vivo Activity (IL-6)” value in the data set on IL-6 is “Active”.

One may read the melting point as the temperature of the solid-liquid transition. Turning to `COc1cc(OC)c2c(=O)[nH]c(-c3ccc(OCCNC(C)C)c(-c4ccc(S(C)(=O)=O)cc4C)n3)nc2c1` [Example 45, 2-(5-(2-(Isopropylamino)ethoxy)-6-(2-methyl-4-(methylsulfonyl)phenyl)pyridin-2-yl)-5,7-dimethoxyquinazolin-4(3H)-one], the melting point was in the range of 202 to 203 °C. The “FRET activity (IC50 < 30 μM)” value at Brd4 bromodomain 1 is on record as “Active”. Besides, the “c-myc activity (IC50 < 30 μM)” value with c-myc was “Active”. In addition, the “cell proliferation activity” value with Human AML MV-4-11 cells is recorded as “Active”. The “IL-6 activity (IC50 < 30 μM)” value in the data set with hIL-6 mRNA is reported as “Active”. Besides, the “ApoA-1 Activity (EC170 < 30 μM)” value in the data set on hApoA-1 mRNA is listed as “Active”.

Take `COc1cc(OC)c2c(=O)[nH]c(-c3ccc(OCCNC(C)C)c(-c4ccc(S(C)(=O)=O)cc4C(F)(F)F)n3)nc2c1` [Example 46, 2-(5-(2-(Isopropylamino)ethoxy)-6-(4-(methylsulfonyl)-2-(trifluoromethyl)phenyl)pyridin-2-yl)-5,7-dimethoxyquinazolin-4(3H)-one]: the melting point lay within 199 to 201 °C. At Brd4 bromodomain 1, the “FRET activity (IC50 < 30 μM)” value is reported as “Active”. In addition, the “c-myc activity (IC50 < 30 μM)” value with c-myc is “Active”. Besides, the “cell proliferation activity” value in the data set on Human AML MV-4-11 cells was “Active”. Moreover, the “IL-6 activity (IC50 < 30 μM)” value with hIL-6 mRNA is given as “Active”. Also, the “ApoA-1 Activity (EC170 < 30 μM)” value in the data set with hApoA-1 mRNA is given as “Active”.

The compound `COc1cc(OC)c2c(=O)[nH]c(-c3cccc(-c4ccc([S+](C)[O-])cc4)n3)nc2c1` (stereo not shown) [Example 49, 5,7-Dimethoxy-2-(6-(4-(methylsulfinyl)phenyl)pyridin-2-yl)quinazolin-4(3H)-one] yielded a melting point of 281 to 282 °C. Besides, the “FRET activity (IC50 < 30 μM)” value at Brd4 bromodomain 1 is “Active”. In the data set on c-myc, the “c-myc activity (IC50 < 30 μM)” value is on record as “Not Active”. In addition, the “cell proliferation activity” value with Human AML MV-4-11 cells was “Active”. Also, the “IL-6 activity (IC50 < 30 μM)” value in the data set on hIL-6 mRNA was “Active”. For the same compound, in the data set with hApoA-1 mRNA, the “ApoA-1 Activity (EC170 < 30 μM)” value is “Active”.

The compound `COc1cc(OC)c2c(=O)[nH]c(-c3ccc(OC)c(-c4ccc([S+](C)[O-])cc4)n3)nc2c1` (stereo not shown) [Example 50, 5,7-Dimethoxy-2-(5-methoxy-6-(4-(methylsulfinyl)phenyl)pyridin-2-yl)quinazolin-4(3H)-one] gave a melting point of 266 to 267 °C. The “FRET activity (IC50 < 30 μM)” value at Brd4 bromodomain 1 is “Active”. For the same compound, the “c-myc activity (IC50 < 30 μM)” value with c-myc is recorded as “Active”. In addition, the “cell proliferation activity” value in the data set on Human AML MV-4-11 cells is listed as “Active”. Besides, the “IL-6 activity (IC50 < 30 μM)” value with hIL-6 mRNA is “Active”. The “ApoA-1 Activity (EC170 < 30 μM)” value in the data set with hApoA-1 mRNA was “Active”. Further, in the data set with arthritic rats, the “In vivo Activity” value is recorded as “Active”.

With `COc1cc(OC)c2c(=O)[nH]c(-c3ccc(OCCN(C(=O)OC(C)(C)C)C(C)C)c(-c4ccc([S+](C)[O-])cc4)n3)nc2c1` (stereo not shown) [Example 53, tert-Butyl (2-((6-(5,7-dimethoxy-4-oxo-3,4-dihydroquinazolin-2-yl)-2-(4-(methylsulfinyl)phenyl)pyridin-3-yl)oxy)ethyl)(isopropyl)carbamate], the melting point lay within 114 to 116 °C. Moreover, the “FRET activity (IC50 < 30 μM)” value at Brd4 bromodomain 1 is given as “Active”. Also, the “c-myc activity (IC50 < 30 μM)” value in the data set on c-myc is reported as “Not Active”. Further, in the data set with Human AML MV-4-11 cells, the “cell proliferation activity” value was “Not Active”. In the data set with hIL-6 mRNA, the “IL-6 activity (IC50 < 30 μM)” value is recorded as “Not Active”. The “ApoA-1 Activity (EC170 < 30 μM)” value in the data set with hApoA-1 mRNA is reported as “Active”.

As to `COc1cc(OC)c2c(=O)[nH]c(-c3ccc(OCCN4CCCC4)c(-c4ccc([S+](C)[O-])cc4)n3)nc2c1` (stereo not shown) [Example 55, 5,7-Dimethoxy-2-(6-(4-(methylsulfinyl)phenyl)-5-(2-(pyrrolidin-1-yl)ethoxy)pyridin-2-yl)quinazolin-4(3H)-one], the melting point lay in the range of 103 to 105 °C. On Brd4 bromodomain 1, the “FRET activity (IC50 < 30 μM)” value is listed as “Active”. For the same compound, the “c-myc activity (IC50 < 30 μM)” value in the data set on c-myc is reported as “Not Active”. Besides, the “cell proliferation activity” value with Human AML MV-4-11 cells is “Active”. The “IL-6 activity (IC50 < 30 μM)” value in the data set on hIL-6 mRNA is on record as “Active”. Besides, in the data set with hApoA-1 mRNA, the “ApoA-1 Activity (EC170 < 30 μM)” value was “Active”.

With `COc1cc(OC)c2c(=O)[nH]c(-c3ccc(OC)c(-c4ccc(C(=O)N(C)C)cc4Cl)c3)nc2c1` [Example 59, 2-Chloro-5′-(5,7-dimethoxy-4-oxo-3,4-dihydroquinazolin-2-yl)-2′-methoxy-N,N-dimethyl-[1,1′-biphenyl]-4-carboxamide], the melting point is above 300 °C. In addition, the “FRET activity (IC50 < 30 μM)” value on Brd4 bromodomain 1 is listed as “Active”. In addition, the “c-myc activity (IC50 < 30 μM)” value with c-myc is listed as “Active”. In addition, in the data set on Human AML MV-4-11 cells, the “cell proliferation activity” value is given as “Not Active”. The “IL-6 activity (IC50 < 30 μM)” value in the data set on hIL-6 mRNA is on record as “Active”. The “ApoA-1 Activity (EC170 < 30 μM)” value in the data set on hApoA-1 mRNA is on record as “Active”.

For `COc1ccc2c(=O)[nH]c(-c3ccc(OCCNC(C)C)c(-c4ccc(S(C)(=O)=O)cc4)n3)nc2c1` [Example 67], the melting point fell in the range of 204 to 205 °C. Besides, the “FRET activity (IC50 < 30 μM)” value at Brd4 bromodomain 1 was “Active”. Further, in the data set on c-myc, the “c-myc activity (IC50 < 30 μM)” value is “Active”. Further, in the data set on Human AML MV-4-11 cells, the “cell proliferation activity” value is “Active”. The “IL-6 activity (IC50 < 30 μM)” value in the data set on hIL-6 mRNA is reported as “Not Active”. In addition, the “ApoA-1 Activity (EC170 < 30 μM)” value with hApoA-1 mRNA is recorded as “Active”.

The values are drawn from patent publication US9765039B2, “Biaryl derivatives as bromodomain inhibitors” (Zenith Epigenetics Ltd., priority 2012, dated 2017).
